From patent US20230097866A1, “BACTERIAL TOPOISOMERASE INHIBITORS DERIVED FROM ISOMANNIDE” (Ohio State Innovation Foundation, priority 2020, published 2023)
≈ marks a conversion by molar mass, not a printed value.

Tests used:
H37Rv (rpoB^S450L) = assay type: cell-based, Mycobacterium tuberculosis
H37Rv (katG^del) = experiment: microbe, parasite or virus in culture; assay type: cell-based; conditions: Mycobacterium tuberculosis, microbroth dilution
H37Rv (gyrA^D94K) = assay type: cell-based, Mycobacterium tuberculosis

With `COc1ccc2ncc(F)c(CC[C@@]3(O)CO[C@@H]4[C@@H](NCc5ccc(Cl)c(Cl)c5)CO[C@@H]43)c2n1` [Compound 26, (3R,3aS,6S,6aR)-6-((3,4-dichlorobenzyl)amino)-3-(2-(3-fluoro-6-methoxy-1,5-napkthyridin-4-yl)ethyl)hexahydrofuro[3,2-b]-furan-3-ol] the “MIC H37Rv (rpoB^S450L)” value (H37Rv (rpoB^S450L)) was 1 µg/mL (≈ 1.97 µM), the MIC (H37Rv (katG^del)) was 1 µg/mL (≈ 1.97 µM) and the “MIC H37Rv (gyrA^D94K)” value (H37Rv (gyrA^D94K)) was 2 µg/mL (≈ 3.93 µM).
`COc1ccc2ncc(F)c(CC[C@@]3(O)CO[C@@H]4[C@@H](NCc5ccc(C)cc5)CO[C@@H]43)c2n1` [Compound 25, (3R,3aS,6S,6aR)-3-(2-(3-fluora-6-methoxy-1,5-naphthyridin-4-yl)ethyl)-6-((4-methyllbenzyl)amino)hexahydrofuro[3,2-b]furan-3-ol] was tested, and the “MIC H37Rv (rpoB^S450L)” value (H37Rv (rpoB^S450L)) was 4 µg/mL (≈ 8.82 µM), the MIC (H37Rv (katG^del)) was 4 µg/mL (≈ 8.82 µM) and the “MIC H37Rv (gyrA^D94K)” value (H37Rv (gyrA^D94K)) was 16 µg/mL (≈ 35.3 µM).
